“And” between values parts separate entries of the source, which are not always exact repeats. Equal values may be shown once. Inconclusive results and toxic doses are left out. No stated cut-off is given here; in the data, active means T/C of 150% or more; inactive means T/C below 125%. Peptide text beside a SMILES is read from it. * marks the point of attachment. Tos = Cc1ccc(S(=O)(=O)*)cc1
System: L1210 leukemia ip in BDF1 mice, survival T/C
Experiment: NCI In Vivo Anticancer Drug Screen. Data for tumor model L1210 Leukemia (intraperitoneal) in B6D2F1 (BDF1) mice
Details: endpoint: mean survival time, higher = longer survival
Procedure, shortened: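 Value reflects the ratio of survival in compound-treated mice to survival in vehicle-treated controls, with both groups carrying the same transplanted tumor.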

[1] = dose: 12.5 mg/kg/injection, schedule: Q01DX009 (ip), vehicle: saline with Tween-80
[2] = dose: 12.5 mg/kg/injection, schedule: Q04DX003 (ip), vehicle: saline with Tween-80
[3] = dose: 25.0 mg/kg/injection, schedule: Q01DX009 (ip), vehicle: saline with Tween-80
[4] = dose: 25.0 mg/kg/injection, schedule: Q04DX003 (ip), vehicle: saline with Tween-80
[5] = dose: 100.0 mg/kg/injection, schedule: Q01DX001 (ip), vehicle: saline
[6] = dose: 100.0 mg/kg/injection, schedule: Q04DX002 (ip), vehicle: Klucel (hydroxypropylcellulose) (HPC)
[7] = dose: 200.0 mg/kg/injection, schedule: Q04DX002 (ip), vehicle: Klucel (hydroxypropylcellulose) (HPC)
[8] = dose: 400.0 mg/kg/injection, schedule: Q04DX002 (ip), vehicle: Klucel (hydroxypropylcellulose) (HPC)
[9] = dose: 100.0 mg/kg/injection, schedule: Q04DX003 (ip), vehicle: Klucel (hydroxypropylcellulose) (HPC)
[10] = dose: 200.0 mg/kg/injection, schedule: Q01DX009 (ip), vehicle: Klucel (hydroxypropylcellulose) (HPC)
[11] = dose: 400.0 mg/kg/injection, schedule: Q01DX009 (ip), vehicle: Klucel (hydroxypropylcellulose) (HPC)

Measured: T/C

C1COC(NC2CC3CCC2C3)=N1 (configuration not stated)
inactive: dose: 6.25 mg/kg/injection, schedule: Q01DX009 (ip), vehicle: saline with Tween-80 94 % of control | dose: 6.25 mg/kg/injection, schedule: Q04DX003 (ip), vehicle: saline with Tween-80 94 % of control | [1] 104 % of control | [2] 91 % of control | [3] 100 % of control | [4] 97 % of control

CN=C1CC2CCC(C2)C1(O)c1ccccc1 (configuration not stated)
inactive: [5] 101 % of control

Cc1ccc(S(=O)(=O)NCC(=O)NCC(=O)O)cc1 (Tos-Gly-Gly-OH)
inactive: dose: 100.0 mg/kg/injection, schedule: Q01DX009 (ip), vehicle: saline 105 % of control | dose: 200.0 mg/kg/injection, schedule: Q01DX009 (ip), vehicle: saline 94 % of control | dose: 400.0 mg/kg/injection, schedule: Q01DX009 (ip), vehicle: saline 96 % of control

Cc1ccc(C2NC(=O)N3C(c4ccc(C)cc4)NC(=O)N23)cc1 (configuration not stated)
inactive: dose: 100.0 mg/kg/injection, schedule: Q01DX009 (ip), vehicle: gum acacia 99 % of control | dose: 100.0 mg/kg/injection, schedule: Q04DX003 (ip), vehicle: gum acacia 99 % of control | dose: 200.0 mg/kg/injection, schedule: Q01DX009 (ip), vehicle: gum acacia 102 % of control | dose: 200.0 mg/kg/injection, schedule: Q04DX003 (ip), vehicle: gum acacia 87 % of control | dose: 400.0 mg/kg/injection, schedule: Q01DX009 (ip), vehicle: gum acacia 96 % of control | dose: 400.0 mg/kg/injection, schedule: Q04DX003 (ip), vehicle: gum acacia 92 % of control

CSCCNC(=O)C(=O)NCCSC
inactive: dose: 100.0 mg/kg/injection, schedule: Q04DX002 (ip), vehicle: other 95 % of control | dose: 200.0 mg/kg/injection, schedule: Q04DX002 (ip), vehicle: other 88 % of control | dose: 400.0 mg/kg/injection, schedule: Q04DX002 (ip), vehicle: other 98 % of control

CCCCCCCCc1ccc(NC(N)=S)cc1
inactive: dose: 3.12 mg/kg/injection, schedule: Q01DX009 (ip), vehicle: saline 104 % of control | dose: 6.25 mg/kg/injection, schedule: Q01DX009 (ip), vehicle: saline 107 % of control | [1] 92 % of control | dose: 12.5 mg/kg/injection, schedule: Q01DX009 (ip), vehicle: saline 111 % of control

O=C1OCC/C1=C/OCCCCCCO/C=C1/CCOC1=O
inactive: [6] 102 % of control | [7] 102 % of control | [8] 91 % of control

Nc1nc2c(ncn2C2CC(CO)C(O)C2O)c(=O)[nH]1 (configuration not stated)
inactive: dose: 9.5 mg/kg/injection, schedule: Q01DX009 (ip), vehicle: other 101 % of control | dose: 19.0 mg/kg/injection, schedule: Q04DX003 (ip), vehicle: other 94 % of control | dose: 38.0 mg/kg/injection, schedule: Q04DX003 (ip), vehicle: other 92 % of control | dose: 75.0 mg/kg/injection, schedule: Q01DX001 (ip), vehicle: other 88 % of control

[O-]/[N+](=N\O)c1ccc(/[N+]([O-])=N\O)cc1
inactive: [1] 88 % of control | [3] 88 % of control | dose: 50.0 mg/kg/injection, schedule: Q01DX009 (ip), vehicle: saline with Tween-80 97 % of control and 107 % of control and 91 % of control | dose: 100.0 mg/kg/injection, schedule: Q01DX001 (ip), vehicle: saline with Tween-80 95 % of control | dose: 100.0 mg/kg/injection, schedule: Q01DX009 (ip), vehicle: saline with Tween-80 102 % of control | dose: 200.0 mg/kg/injection, schedule: Q01DX001 (ip), vehicle: saline with Tween-80 98 % of control | dose: 200.0 mg/kg/injection, schedule: Q01DX009 (ip), vehicle: saline with Tween-80 87 % of control

NNC(=O)CNc1ccccc1Br
inactive: dose: 50.0 mg/kg/injection, schedule: Q04DX002 (ip), vehicle: Klucel (hydroxypropylcellulose) (HPC) 106 % of control | [6] 105 % of control and 110 % of control

C=C(Br)CN1CCCC1=O
inactive: dose: 75.0 mg/kg/injection, schedule: Q01DX009 (ip), vehicle: saline 98 % of control | dose: 150.0 mg/kg/injection, schedule: Q01DX009 (ip), vehicle: saline 106 % of control | dose: 300.0 mg/kg/injection, schedule: Q01DX009 (ip), vehicle: saline 114 % of control

O=C(/C=C/c1ccccn1)c1ccccc1O
inactive: [2] 92 % of control | [4] 100 % of control | dose: 50.0 mg/kg/injection, schedule: Q04DX003 (ip), vehicle: saline with Tween-80 92 % of control

O=C(CCN1CC1)N1CCOCC1
inactive: dose: 100.0 mg/kg/injection, schedule: Q04DX003 (ip), vehicle: saline 108 % of control | dose: 200.0 mg/kg/injection, schedule: Q04DX003 (ip), vehicle: saline 100 % of control | dose: 400.0 mg/kg/injection, schedule: Q04DX003 (ip), vehicle: saline 113 % of control

O=C(c1ccccc1)C(Br)c1ccc([N+](=O)[O-])cc1 (configuration not stated)
inactive: dose: 100.0 mg/kg/injection, schedule: Q01DX009 (ip), vehicle: Klucel (hydroxypropylcellulose) (HPC) 99 % of control | [9] 105 % of control | [10] 105 % of control | dose: 200.0 mg/kg/injection, schedule: Q04DX003 (ip), vehicle: Klucel (hydroxypropylcellulose) (HPC) 108 % of control | [11] 95 % of control | dose: 400.0 mg/kg/injection, schedule: Q04DX003 (ip), vehicle: Klucel (hydroxypropylcellulose) (HPC) 103 % of control

CN=C(NC1CCCCC1)c1ccc(NC(=O)c2ccc(C(=O)Nc3ccc(C(=NC)NC4CCCCC4)cc3)cc2)cc1
inactive: dose: 1.88 mg/kg/injection, schedule: Q01DX Z (ip), vehicle: saline 102 % of control | dose: 3.75 mg/kg/injection, schedule: Q01DX Z (ip), vehicle: saline 100 % of control | dose: 7.5 mg/kg/injection, schedule: Q01DX Z (ip), vehicle: saline 102 % of control

CN(C)N=Nc1ccc(C(=O)OC2CCC3C4CCC5=CC(=O)CCC5(C)C4CCC23C)cc1 (configuration not stated)
inactive: dose: 10.0 mg/kg/injection, schedule: Q01DX009 (ip), vehicle: Klucel (hydroxypropylcellulose) (HPC) 96 % of control | [6] 94 % of control | [10] 102 % of control | [7] 102 % of control | [11] 97 % of control | [8] 91 % of control

CC1(Cl)CCC(C(C)(C)Cl)CC1 (configuration not stated)
inactive: [5] 101 % of control | dose: 200.0 mg/kg/injection, schedule: Q01DX001 (ip), vehicle: saline 90 % of control | dose: 400.0 mg/kg/injection, schedule: Q01DX001 (ip), vehicle: saline 90 % of control

CCOC(=O)c1[nH]c(C)c(/C=C/C(=O)O)c1C
inactive: dose: 25.0 mg/kg/injection, schedule: Q04DX003 (ip), vehicle: Klucel (hydroxypropylcellulose) (HPC) 98 % of control | dose: 50.0 mg/kg/injection, schedule: Q04DX003 (ip), vehicle: Klucel (hydroxypropylcellulose) (HPC) 95 % of control | dose: 100.0 mg/kg/injection, schedule: Q01DX001 (ip), vehicle: Klucel (hydroxypropylcellulose) (HPC) 106 % of control | [9] 101 % of control | dose: 200.0 mg/kg/injection, schedule: Q01DX001 (ip), vehicle: Klucel (hydroxypropylcellulose) (HPC) 98 % of control | dose: 400.0 mg/kg/injection, schedule: Q01DX001 (ip), vehicle: Klucel (hydroxypropylcellulose) (HPC) 98 % of control

Reference: PubChem BioAssay AID248 (DTP/NCI, 2004)
